Patent US20220289732A1, “HETEROCYCLIC WDR5 INHIBITORS AS ANTI-CANCER COMPOUNDS” (NOVARTIS AG, priority 2019, published 2022)

Columns and labels:
WDR5 = WDR5 (Homo sapiens, UniProt P61964); assay: WDR5 HTRF binding assay; conditions: read-out: (a) WDR5 HTRF Pep Val v.1[Inhibitor/IC50]Qualified AC50
Description: The compounds were serially diluted 3-fold in DMSO to obtain a total of twelve concentrations. Then the test compounds at each concentration (90 nL of each) were transferred by Mosquito in the white Proxiplate plus 384-well microplate (Perkin Elmer). The assay mixture (typical 9 μL) containing 6 nM WDR5 and 20 nM Biotin-MLL1 WIN peptide (3762-3773) in the assay buffer (25 mM Hepes, pH7.5, 0.05% Tween 20, 2 mM DTT, 100 mM NaCl, 0.1% BSA) were added to the wells. For counter assay, a 9 μL solution of 15 nM Biotin-PEG-His peptide was added into the wells. After 20 min incubation at rt, a 3 μL detection solution containing 14 μg/ml Phycolink Streptavidin Allophycocyanin (Prozyme), 2 nM Anti-His-Eu (PerkinElmer) in assay buffer was then added. After 1 hr incubation, the plate was read in the EnVision reader (PerkinElmer) using the HTRF protocol (The protocol set-up: Lance/Delfia dual enhancer mirror, excitation at 320 UV2 (TRF), emission at APC665, 2nd emission at EuropiμM 615). HTRF signals were normalized based on the reading coming from the positive (maximum signal control) and negative controls (minimum signal control) to give percentage of activities left. The data were then fit to a dose response equation using the program Helios (Novartis) to get the IC50 values. Helios is a Novartis in-house assay data analysis software using the methods described by Normolle, D. P., Statistics in Medicine, 12:2025-2042 (1993); Formenko, I. et al., Computer Methods and programs in Biomedicine, 82, 31-37 (2006); Sebaugh, J. L., Pharmaceutical Statistics, 10:128-134 (2011); Kelly, C. et al., Biometrics, 46(4):1071-1085 (1990); and Kahm, M, et al., Journal of Statistical Software, 33(7):(2010) (grofit: Fitting Biological Growth Curves with R, pages 1-21, available at http://www.jstatsoft.org/).

[1] = biological target: wild type MLL1 four-member complex (MLL1-4C) (Homo sapiens, UniProt P61964); assay: MLL1 LC-MS assay (SAH production); assay type: biochemical; conditions: read-out: (b) MLL LCMS Peptide Val.v.1 Qualified AC50
Description: The compounds of the present disclosure were serially and separately diluted 3-fold in DMSO to obtain a total of eight or twelve concentrations. Then the test compounds at each concentration (120 nL of each) were transferred by Mosquito into white Proxiplate plus 384-well microplate (PerkinElmer). Solutions (6 μL) of 60 nM wild type MLL1 four-member complex (MLL1-4C) and 5 μM SAM in the reaction buffer (20 mM Tris-HCl, pH8.0, 0.01% Tween 20, 1 mM DTT, 10 mM MgCl2, 0.01% BSA) were added to the wells that were then incubated with the test compound for 20 min. A 6 μL solution of 20 μM of the peptide substrate H3K4me0 (histone H3[1-21]-Biotin) in the reaction buffer was added to initiate each reaction. The final components in the reaction solution include 30 nM MLL1-4C, 2.5 μM SAM, and 10 μM H3K4me0 with varying concentration of the compounds. A positive control consisted of 30 nM MLL1-4C, 2.5 μM SAM, and 10 μM substrate in the absence of the test compound, and a negative control consisted of 2.5 μM SAM, and 10 μM substrate only. Each reaction was incubated at rt for 120 min, then stopped by addition of 3 μL per of quench solution (2.5% TFA with 320 nM d4-SAH). The reaction mixture was centrifuged (Eppendorf centrifuge 5810, Rotor A-4-62) for 2 min at 2000 rmp. The SAH production from the enzymatic assays were monitored by LC-MS/MS on an API 4000 triple quadrupole mass spec with Turbolon Spray (Applied Biosystem) coupled with Prominenece UFLC (Shimazu). The level of SAH production were then normalized based on the values coming from the positive and negative controls to give percent enzyme activities. The data were then fit to a dose response equation using the program Helios (Novartis) to get the IC50 values of the test compound. Helios is a Novartis in-house assay data analysis software using the methods described by Normolle, D. P., Statistics in Medicine, 12:2025-2042 (1993); Formenko, I. et al., Computer Methods and programs in Biomedicine, 82, 31-37 (2006); Sebaugh, J. L., Pharmaceutical Statistics, 10:128-134 (2011); Kelly, C. et al., Biometrics, 46(4):1071-1085 (1990); and Kahm, M, et al., Journal of Statistical Software, 33(7):(2010) (grofit: Fitting Biological Growth Curves with R, pages 1-21, available at http://www.jstatsoft.org/).

MV4-11 cells = assay: MV4-11 6-day cell growth CTG (CellTiter-Glo) assay; assay type: cell-based; conditions: Homo sapiens, MV4-11, 144 h, 6 days, read-out: (c) MLL/WDR5 cell proliferation assay//MLL/WDR5 proliferation MV4:11 Qualified AC50
Description: MV4-11 6-Day Cell Growth CTG (CellTiter-Glo) Assay
Acute myeloid leukemia cell MV4-11 (ATCC® CRL-9591™) was cultured with RPMI 1640 medium (Thermo Fisher Scientific, cat #11875) supplemented with 10% FBS (Thermo Fisher Scientific, cat #10099141) in humidified incubator at 37° C., 5% CO2. To assess the effect of WDR5 inhibitor on cell growth, the compound of the present invention was dissolved in DMSO and serially diluted at 1:3 for 12 points starting from 10 mM then 200 nL for the replicate of each dose per well was dispensed to Viewplate-384 Black (Perkin Elmer). Exponentially growing MV4-11 cells were seeded at the density of 300 cells per well in 40 μL to the plate, so the final compound working concentration starts from 50 μM. After 6 days, 40 μL CellTiter-Glo (Promega, cat #G7573) was added into the cell culture well and luminescence was read with Envision (Perkin Elmer) to determine the viable cells. The percentage inhibition was calculated against the samples treated with DMSO only and the data were used for dose response curve fitting in GraphPad Prism to get the IC50 of representative compound of present invention, which reflects the inhibition of WDR5 activity in the proliferation of MV4;11.

CNc1nccn1Cc1cc(CN(C)C2CC2)c2c(c1)C(=O)N([C@@H](C)c1cnc(F)c(OC)c1)CC2 [Example 15, (S)-5-((cyclopropyl(methyl)amino)methyl)-2-(1-(6-fluoro-5-methoxypyridin-3-yl)ethyl)-7-((2-(methylamino)-1H-imidazol-1-yl)methyl)-3,4-dihydroisoquinolin-1(2H)-one]
10 to 1000 nM: IC50 (WDR5) | AC50 [1] | AC50 (MV4-11 cells)

CNc1nccn1Cc1cc(CN2CC[C@@H](F)C2)c2c(c1)C(=O)N([C@@H](C)c1cc(OC)c(F)cn1)CC2 [Example 16]
10 to 1000 nM: IC50 (WDR5) | AC50 [1] | AC50 (MV4-11 cells)

CNc1nccn1Cc1cc(CN2CCC23COC3)c2c(c1)C(=O)N([C@@H](C)c1cc(OC)c(F)cn1)CC2 [Example 17, (S)-5((6-oxa-1-azaspiro+3.3+heptan-1-yl)methyl)-2-(1-(5-fluoro-4-methoxypyridin-2-yl)ethyl)-7-((2-(methylamino)-1H-imidazol-1-yl)methyl)-3,4-dihydroisoquinolin-1(2H)-one]
10 to 1000 nM: IC50 (WDR5) | AC50 [1] | AC50 (MV4-11 cells)

CCOc1cc([C@H](C)N2CCc3c(CN(C)C4CC4)cc(Cn4ccnc4NC)cc3C2=O)ncc1C#N [Example 18, (S)-6-(1-(5-((cyclopropyl(methyl)amino)methyl)-7-((2-(methylamino)-1H-imidazol-1-yl)methyl)-1-oxo-3,4-dihydroisoquinolin-2(1H)-yl)ethyl)-4-ethoxynicotinonitrile]
10 to 1000 nM: IC50 (WDR5) | AC50 [1] | AC50 (MV4-11 cells)

CCOc1cc([C@H](C)N2CCc3c(CN(C)C)cc(Cn4ccnc4NC)cc3C2=O)ncc1Cl [Example 20, (S)-2-(1-(5-chloro-4-ethoxypyridin-2-yl)ethyl)-5-((dimethylamino)methyl)-7-((2-(methylamino)-1H-imidazol-1-yl)methyl)-3,4-dihydroisoquinolin-1(2H)-one]
10 to 1000 nM: IC50 (WDR5) | AC50 [1] | AC50 (MV4-11 cells)

CCOc1cc([C@H](C)N2CCc3c(CN(C)C4CC4)cc(Cn4ccnc4NC)cc3C2=O)ncc1F [Example 21, (S)-5-((cyclopropyl(methyl)amino)methyl)-2-(1-(4-ethoxy-5-fluoropyridin-2-yl)ethyl)-7-((2-(methylamino)-1H-imidazol-1-yl)methyl)-3,4-dihydroisoquinolin-1(2H)-one]
10 to 1000 nM: IC50 (WDR5) | AC50 [1] | AC50 (MV4-11 cells)

CCOc1cc([C@H](C)N2CCc3c(CN(C)C4CC4)cc(Cn4ccnc4NC)cc3C2=O)ncc1Cl [Example 22, (S)-2-(1-(5-chloro-4-ethoxypyridin-2-yl)ethyl)-5-((cyclopropyl(methyl)amino)methyl)-7-((2-(methylamino)-1H-imidazol-1-yl)methyl)-3,4-dihydroisoquinolin-1(2H)-one]
10 to 1000 nM: IC50 (WDR5) | AC50 [1] | AC50 (MV4-11 cells)

CCOc1cc([C@H](C)N2CCc3c(CN4CCOCC4)cc(Cn4ccnc4NC)cc3C2=O)ncc1Cl [Example 23, (S)-2-(1-(5-chloro-4-ethoxypyridin-2-yl)ethyl)-7-((2-(methylamino)-1H-imidazol-1-yl)methyl)-5-(morpholinomethyl)-3,4-dihydroisoquinolin-1(2H)-one]
10 to 1000 nM: IC50 (WDR5) | AC50 [1] | AC50 (MV4-11 cells)

CCOc1cc(CN2CCc3c(CN(C)C)cc(Cn4ccnc4NC)cc3C2=O)cnc1C#N [Example 24, 5-((5-((dimethylamino)methyl)-7-((2-(methylamino)-1H-imidazol-1-yl)methyl)-1-oxo-3,4-dihydroisoquinolin-2(1H)-yl)methyl)-3-ethoxypicolinonitrile]
10 to 1000 nM: IC50 (WDR5) | AC50 [1] | AC50 (MV4-11 cells)

CCOc1cc(CN2CCc3c(CN4CC(C)C4)cc(Cn4ccnc4NC)cc3C2=O)cnc1C#N [Example 25, 3-ethoxy-5-((7-((2-(methylamino)-1H-imidazol-1-yl)methyl)-5-((3-methylazetidin-1-yl)methyl)-1-oxo-3,4-dihydroisoquinolin-2(1H)-yl)methyl)picolinonitrile]
10 to 1000 nM: IC50 (WDR5) | AC50 [1] | AC50 (MV4-11 cells)
